Data on 35 compounds can be found in US9815846B2 (Merck Sharp & Dohme Corp., priority 2014, dated 2017).

Molecules are shown by their SMILES. pIC50: −log10 of the molar value.

Sequence of human TrkA receptor (P04629 33-796): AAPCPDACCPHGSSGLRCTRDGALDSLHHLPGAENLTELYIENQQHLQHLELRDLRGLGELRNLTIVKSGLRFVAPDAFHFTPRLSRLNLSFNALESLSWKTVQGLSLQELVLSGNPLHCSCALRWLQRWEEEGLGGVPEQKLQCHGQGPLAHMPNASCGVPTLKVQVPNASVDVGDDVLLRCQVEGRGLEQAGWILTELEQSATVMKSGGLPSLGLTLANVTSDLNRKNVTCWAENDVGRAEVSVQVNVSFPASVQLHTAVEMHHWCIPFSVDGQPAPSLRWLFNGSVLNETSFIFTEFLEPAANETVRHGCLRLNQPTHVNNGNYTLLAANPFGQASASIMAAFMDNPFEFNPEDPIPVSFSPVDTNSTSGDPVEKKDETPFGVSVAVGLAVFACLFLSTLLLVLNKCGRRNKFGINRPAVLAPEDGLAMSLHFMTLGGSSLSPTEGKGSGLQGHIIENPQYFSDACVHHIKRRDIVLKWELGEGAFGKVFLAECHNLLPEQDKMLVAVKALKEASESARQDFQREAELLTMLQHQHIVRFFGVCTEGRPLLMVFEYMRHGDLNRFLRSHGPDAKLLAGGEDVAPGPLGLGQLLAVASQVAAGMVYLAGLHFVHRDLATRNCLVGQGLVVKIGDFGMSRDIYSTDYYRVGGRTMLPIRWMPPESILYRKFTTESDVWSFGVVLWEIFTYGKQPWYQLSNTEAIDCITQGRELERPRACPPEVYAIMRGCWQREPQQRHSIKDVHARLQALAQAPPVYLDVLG

This experiment addresses human TrkA receptor (Homo sapiens (Human), UniProt P04629). Put plainly: DiscoverX PathHunter TrkA functional assay (NGF-stimulated U2OS cells). Format: cell-based. To be noted: U2OS cells expressing human TrkA-PK, Shc1-EA and p75NTR; compound 1 h, then NGF at ~80% of maximal response for 3 h; luminescence.
Take `Cn1ccc(-c2cc(C(=O)Nc3cnc(C4CCNC4=O)nc3-c3ccccc3)c(F)cc2C(F)(F)F)n1` (single isomer, unassigned) [Example 197, (R or S)-2-Fluoro-5-(1-methyl-1H-pyrazol-3-yl)-N-(2-(2-oxopyrrolidin-3-yl)-4-phenylpyrimidin-5-yl)-4-(trifluoromethyl)benzamide]: the pIC50 (as a rule, the negative decadic logarithm of the IC50, by convention in mol/L) is 8.43. On to `Cn1ccc(-c2cc(C(=O)Nc3ccc(C4CNC(=O)C4)nc3-c3ccccc3)c(F)cc2C(F)(F)F)n1` (single isomer, unassigned) [Example 198, (R or S)-2-Fluoro-5-(1-methyl-1H-pyrazol-3-yl)-N-(6-(5-oxopyrrolidin-3-yl)-2-phenylpyridin-3-yl)-4-(trifluoromethyl)benzamide], for which the negative-log IC50 (pIC50) was 9.24. Compound `Cn1ccc(-c2cc(C(=O)Nc3cnc(CN4CCOC4=O)nc3-c3ccccc3)c(F)cc2C(F)(F)F)n1` (single isomer, unassigned) [Example 218] showed a negative-log IC50 (pIC50) of 9.85. The result for `Cn1ccc(-c2cc(C(=O)Nc3cnc(CN4CC(CO)OC4=O)nc3-c3ccccc3)c(F)cc2C(F)(F)F)n1` (single isomer, unassigned) [Example 228, (R or S)-2-fluoro-N-(2-((5-(hydroxymethyl)-2-oxooxazolidin-3-yl)methyl)-4-phenylpyrimidin-5-yl)-5-(1-methyl-1H-pyrazol-3-yl)-4-(trifluoromethyl)benzamide] reads 9.18. With `O=C(Nc1cc(N2CCOCC2)cnc1-c1ccccc1)c1ccc(C(F)(F)F)cc1Cl` [Example 1, 2-Chloro-N-(5-morpholino-2-phenylpyridin-3-yl)-4-(trifluoromethyl)benzamide] the figure was 6.32; with `Cc1ncc(NC(=O)c2cc(-c3ncccn3)c(Cl)cc2F)c(-c2ccccc2)n1` [Example 2, 4-Chloro-2-fluoro-N-(2-methyl-4-phenylpyrimidin-5-yl)-5-(pyrimidin-2-yl)benzamide], 7.00; with `Cc1cc(-c2ccccc2)c(NC(=O)c2ccc(OC(F)(F)F)c(-c3ccn(C)n3)c2)cn1` [Example 3, 3-(1-Methyl-1H-pyrazol-3-yl)-N-(6-methyl-4-phenylpyridin-3-yl)-4-(trifluoromethoxy)benzamide], 7.27. On to `Cc1nc(Cl)c(NC(=O)c2ccc(C(F)(F)F)c(-c3ccn(C)n3)c2)c(-c2ccccc2)n1` [Example 4, N-(4-Chloro-2-methyl-6-phenylpyrimidin-5-yl)-3-(1-methyl-1H-pyrazol-3-yl)-4-(trifluoromethyl)benzamide], for which the negative logarithm of the IC50 (pIC50) is 6.80.

Take `Cc1cc(-c2ccccc2)c(NC(=O)c2ccc(C(F)(F)F)c(-c3cc[nH]n3)c2)cn1` [Example 5, N-(6-Methyl-4-phenylpyridin-3-yl)-3-(1H-pyrazol-5-yl)-4-(trifluoromethyl)benzamide]: the pIC50 is 7.85. Consider `O=C(Nc1ccccc1-c1ccc(F)cc1)c1ccc(C(F)(F)F)cc1F` [Example 6, 2-fluoro-N-(4′-fluorobiphenyl-2-yl)-4-(trifluoromethyl)benzamide], for which the negative logarithm of the IC50 (pIC50) was 5.31.

As for `Cc1cc(-c2ccccc2NC(=O)c2cccc(-c3nccs3)c2)n[nH]1` [Example 7, N-[2-(5-methyl-1H-pyrazol-3-yl)phenyl]-3-(1,3-thiazol-2-yl)benzamide], the negative logarithm of the IC50 (pIC50) was 5.40. With `Cc1ncc(NC(=O)c2ccc(C)c(F)c2F)c(-c2ccccc2)n1` [Example 8, 2,3-difluoro-4-methyl-N-(2-methyl-4-phenylpyrimidin-5-yl)benzamide] the figure was 5.37; with `Cc1cc(C)n(-c2ccc(Cl)c(C(=O)Nc3cnc(C)nc3-c3ccccc3)c2)n1` [Example 9, 2-chloro-5-(3,5-dimethyl-1H-pyrazol-1-yl)-N-(2-methyl-4-phenylpyrimidin-5-yl)benzamide], 6.85. The compound `O=C(Nc1cc(-c2cccnc2)cnc1-c1ccccc1)c1ccc(C(F)(F)F)cc1` [Example 10, N-(6-phenyl-3,3′-bipyridin-5-yl)-4-(trifluoromethyl)benzamide] showed a negative logarithm of the IC50 (pIC50) of 5.80. With `Cc1cc(-c2ccccc2NC(=O)c2cc(-n3nc(C)cc3C)ccc2Cl)on1` [Example 11, 2-chloro-5-(3,5-dimethyl-1H-pyrazol-1-yl)-N-[2-(3-methylisoxazol-5-yl)phenyl]benzamide] the figure was 5.12; with `Cc1ncc(NC(=O)c2ccc(C(F)(F)F)c(-c3cscn3)c2)c(-c2ccccc2)n1` [Example 12, N-(2-methyl-4-phenylpyrimidin-5-yl)-3-(1,3-thiazol-4-yl)-4-(trifluoromethyl)benzamide], 7.44. The result for `Cc1cc(C)n(-c2cc(C(=O)Nc3cnc(C)nc3-c3ccccc3)ccc2F)n1` [Example 13, 3-(3,5-dimethyl-1H-pyrazol-1-yl)-4-fluoro-N-(2-methyl-4-phenylpyrimidin-5-yl)benzamide] reads 6.04; that for `Cc1ncc(NC(=O)c2cccc(-n3nccc3C(F)(F)F)c2)c(-c2ccccc2)n1` [Example 14, N-(2-methyl-4-phenylpyrimidin-5-yl)-3-[5-(trifluoromethyl)-1H-pyrazol-1-yl]benzamide], 6.23; that for `Cc1ncc(NC(=O)c2ccc(C(F)(F)F)c(-c3ccn(C)n3)c2)c(-c2ccccc2)n1` [Example 15, N-(2-methyl-4-phenylpyrimidin-5-yl)-3-(1-methyl-1H-pyrazol-3-yl)-4-(trifluoromethyl)benzamide], 8.52. On to `Cc1ncc(NC(=O)c2ccc(C(F)(F)F)c(-n3nccn3)c2)c(-c2ccccc2)n1` [Example 16, N-(2-methyl-4-phenylpyrimidin-5-yl)-3-(2H-1,2,3-triazol-2-yl)-4-(trifluoromethyl)benzamide], for which the pIC50 was 7.18. With `Cc1ccn(-c2cc(C(=O)Nc3cnc(C)nc3-c3ccccc3)ccc2C(F)(F)F)n1` [Example 17, N-(2-methyl-4-phenylpyrimidin-5-yl)-3-(3-methyl-1H-pyrazol-1-yl)-4-(trifluoromethyl)benzamide] the figure was 7.82; with `Cc1cc(-c2nc(C)ncc2NC(=O)c2ccc(C(F)(F)F)c(-c3nc(C)cs3)c2)[nH]n1` [Example 18, N-[2-methyl-4-(3-methyl-1H-pyrazol-5-yl)pyrimidin-5-yl]-3-(4-methyl-1,3-thiazol-2-yl)-4-(trifluoromethyl)benzamide], 6.48.

In turn, `Cc1cnn(-c2ccncc2NC(=O)c2ccc(C(F)(F)F)c(-c3ccn(C)n3)c2)c1` [Example 19, 3-(1-methyl-1H-pyrazol-3-yl)-N-[4-(4-methyl-1H-pyrazol-1-yl)pyridin-3-yl]-4-(trifluoromethyl)benzamide] had a pIC50 of 7.60. With `Cc1ncc(NC(=O)c2ccc(C(F)(F)F)c(-c3ncco3)c2)c(-c2ccccc2)n1` [Example 20, N-(2-methyl-4-phenylpyrimidin-5-yl)-3-(1,3-oxazol-2-yl)-4-(trifluoromethyl)benzamide] the figure was 7.82; with `Cc1ncc(NC(=O)c2ccc(C(F)(F)F)c(-c3cc[nH]n3)c2)c(-c2ccccc2)n1` [Example 21, N-(2-methyl-4-phenylpyrimidin-5-yl)-3-(1H-pyrazol-3-yl)-4-(trifluoromethyl)benzamide], 7.46. For the compound `Cn1ccc(-c2cc(C(=O)Nc3ncccc3-c3ccccc3)ccc2C(F)(F)F)n1` [Example 22, 3-(1-methyl-1H-pyrazol-3-yl)-N-(3-phenylpyridin-2-yl)-4-(trifluoromethyl)benzamide], the pIC50 is 7.19. `Cc1ncc(NC(=O)c2cc(-c3ccn(C)n3)c(C(F)(F)F)cc2Cl)c(-c2ccccc2)n1` [Example 23, 2-chloro-N-(2-methyl-4-phenylpyrimidin-5-yl)-5-(1-methyl-1H-pyrazol-3-yl)-4-(trifluoromethyl)benzamide] showed a negative-log IC50 (pIC50) of 8.96. Take `Cn1ccc(-c2cc(C(=O)Nc3nccnc3-c3ccccc3)ccc2C(F)(F)F)n1` [Example 25, 3-(1-methyl-1H-pyrazol-3-yl)-N-(3-phenylpyrazin-2-yl)-4-(trifluoromethyl)benzamide]: the pIC50 was 7.08. For `Cc1nc(C)c(NC(=O)c2ccc(C(F)(F)F)c(-c3ccn(C)n3)c2)c(-c2ccccc2)n1` [Example 26, N-(2,4-dimethyl-6-phenylpyrimidin-5-yl)-3-(1-methyl-1H-pyrazol-3-yl)-4-(trifluoromethyl)benzamide], the pIC50 is 6.68. The result for `Cc1ncc(NC(=O)c2cc(-c3ncccn3)c(C(F)(F)F)cc2F)c(-c2ccccc2)n1` [Example 28, 2-fluoro-N-(2-methyl-4-phenylpyrimidin-5-yl)-5-pyrimidin-2-yl-4-(trifluoromethyl)benzamide] reads 8.02; that for `Cc1coc(-c2cc(C(=O)Nc3cnc(C)nc3-c3ccccc3)ccc2C(F)(F)F)n1` [Example 29, 3-(4-methyl-1,3-oxazol-2-yl)-N-(2-methyl-4-phenylpyrimidin-5-yl)-4-(trifluoromethyl)benzamide], 8.40; that for `Cc1noc(-c2cc(C(=O)Nc3cnc(C)nc3-c3ccccc3)ccc2C(F)(F)F)n1` [Example 30, 3-(3-methyl-1,2,4-oxadiazol-5-yl)-N-(2-methyl-4-phenylpyrimidin-5-yl)-4-(trifluoromethyl)benzamide], 6.89.

Consider `Cc1ncc(NC(=O)c2ccc(C(F)(F)F)c(-c3ccn(C)n3)c2)c(-c2ccc(F)cc2)n1` [Example 31, N-[4-(4-fluorophenyl)-2-methylpyrimidin-5-yl]-3-(1-methyl-1H-pyrazol-3-yl)-4-(trifluoromethyl)benzamide], for which the negative-log IC50 (pIC50) is 8.26. As to `Cc1cccc(-c2nc(C)ncc2NC(=O)c2ccc(C(F)(F)F)c(-c3ccn(C)n3)c2)c1` [Example 32, N-[2-methyl-4-(3-methylphenyl)pyrimidin-5-yl]-3-(1-methyl-1H-pyrazol-3-yl)-4-(trifluoromethyl)benzamide], the negative-log IC50 (pIC50) is 8.08. The result for `Cc1ncc(NC(=O)c2cc(C3CCC(C)O3)c(C(F)(F)F)cc2F)c(-c2ccccc2)n1` (centres unmarked) [Example 33, 2-fluoro-N-(2-methyl-4-phenylpyrimidin-5-yl)-5-(5-methyltetrahydrofuran-2-yl)-4-(trifluoromethyl)benzamide] reads 7.25.
